Test results: patent publication US10179790B2 (THOMAS HELLEDAYS STIFTELSE FOR MEDICINSK FORSKNING, priority 2014, dated 2019)

Tests used:
[1] = target: MTH1 (Homo sapiens, UniProt P36639); test: MTH1 enzymatic assay and IC50 value determination (malachite green, 96- and 384-well format); type: biochemical; details: hydrolysis of dGTP (100 μM), MTH1 6 nM, pyrophosphatase-coupled malachite green, 15 minutes at 22° C.
Outline: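 MTH1 (6 nM) hydrolysed dGTP (100 μM) for 15 min at 22 °C in Tris-acetate buffer with Mg2+, DTT, Tween 20 and excess pyrophosphatase, 1% DMSO. Pi detected with malachite green at 630 nm. IC50 from nonlinear 4-parameter fit of 11–12-point dilution series.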

[2] = test system: cancer cell; test: Cell viability assay (resazurin); type: cell-based; details: 72 h; 3 days with compound, resazurin fluorescence; cell line not named
Outline: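 Cells in DMEM GlutaMAX or line-appropriate medium are exposed to compound for 3 days at 37 °C, 5% CO2. Viability is read as resazurin fluorescence (Ex544/Em590) after 2 h incubation. In the 384-well format, cells are seeded onto 11 pre-dispensed concentrations (final DMSO <1%) and read after 3 h resazurin.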

| IC50 [1] | IC50 [2] | SMILES |
| --- | --- | --- |
| < 200 nM | < 500 nM | CCNC(=O)Nc1cccc(CCNc2cc(-c3cccc(Cl)c3C)nc(N)n2)c1 [Example 148, 1-[3-[2-[[2-amino-6-(3-chloro-2-methyl-phenyl)pyrimidin-4-yl]amino]ethyl]phenyl]-3-ethyl-urea] |
| < 200 nM | < 500 nM | Cc1c(Cl)cccc1-c1cc(NCCc2cccc(NC(=O)NC(C)(C)C)c2)nc(N)n1 [Example 149, 1-[3-[2-[[2-amino-6-(3-chloro-2-methyl-phenyl)pyrimidin-4-yl]amino]ethyl]phenyl]-3-tert-butyl-urea] |
| < 200 nM | < 500 nM | Cc1c(Cl)cccc1-c1cc(NCCc2cccc(NC(=O)N3CCOCC3)c2)nc(N)n1 [Example 150, N-[3-[2-[[2-amino-6-(3-chloro-2-methyl-phenyl)pyrimidin-4-yl]amino]ethyl]phenyl]morpholine-4-carboxamide] |
| < 200 nM | < 500 nM | Cc1c(Cl)cccc1-c1cc(NCCc2cccc(NC(=O)N(C)C)c2)nc(N)n1 [Example 151, 3-[3-[2-[[2-amino-6-(3-chloro-2-methyl-phenyl)pyrimidin-4-yl]amino]ethyl]phenyl]-1,1-dimethyl-urea] |
| < 200 nM | < 500 nM | Cc1c(Cl)cccc1-c1cc(NCCc2cccc(NC(=O)N3CCCC3)c2)nc(N)n1 [Example 152, N-[3-[2-[[2-amino-6-(3-chloro-2-methyl-phenyl)pyrimidin-4-yl]amino]ethyl]phenyl]pyrrolidine-1-carboxamide] |
| < 200 nM | < 500 nM | Cc1c(Cl)cccc1-c1cc(NCCc2cccc(NC(=O)OC(C)C)c2)nc(N)n1 [Example 153, isopropyl N-[3-[2-[[2-amino-6-(3-chloro-2-methyl-phenyl)pyrimidin-4-yl]amino]ethyl]phenyl]carbamate] |
| < 200 nM | < 500 nM | Cc1c(Cl)cccc1-c1cc(NCCc2cccc(NC(=O)OCC(C)C)c2)nc(N)n1 [Example 154, isobutyl N-[3-[2-[[2-amino-6-(3-chloro-2-methyl-phenyl)pyrimidin-4-yl]amino]ethyl]phenyl]carbamate] |
| < 200 nM | < 500 nM | Cc1c(Cl)cccc1-c1cc(NCCc2cccc(NC(=O)OCC(C)(C)C)c2)nc(N)n1 [Example 155, 2,2-dimethylpropyl N-[3-[2-[[2-amino-6-(3-chloro-2-methyl-phenyl)pyrimidin-4-yl]amino]ethyl]phenyl]carbamate] |
| < 200 nM | < 500 nM | Cc1c(Cl)cccc1-c1cc(NCCNc2ncc(C(N)=O)c(C(F)(F)F)n2)nc(N)n1 [Example 159, 2-[2-[[2-amino-6-(3-chloro-2-methyl-phenyl)pyrimidin-4-yl]amino]ethylamino]-4-(trifluoromethyl)pyrimidine-5-carboxamide] |
| < 200 nM | < 500 nM | Cc1c(Cl)cccc1-c1cc(NCCNc2ccc(S(=O)(=O)C(C)C)cc2)nc(N)n1 [Example 160, 6-(3-chloro-2-methyl-phenyl)-N4-[2-(4-isopropylsulfonylanilino)ethyl]pyrimidine-2,4-diamine] |
| < 200 nM | < 500 nM | Cc1c(Cl)cccc1-c1cc(NCCNc2ccc([S+](C)[O-])cc2)nc(N)n1 (stereo not drawn) [Example 161, 6-(3-chloro-2-methyl-phenyl)-N4-[2-(4-methylsulfinylanilino)ethyl]pyrimidine-2,4-diamine] |
| < 200 nM | < 500 nM | Cc1c(Cl)cccc1-c1cc(NCCCNc2ccc(S(N)(=O)=O)cc2)nc(N)n1 [Example 163, 4-[3-[[2-amino-6-(3-chloro-2-methyl-phenyl)pyrimidin-4-yl]amino]propylamino]benzenesulfonamide] |
| < 200 nM | < 500 nM | Cc1c(Cl)cccc1-c1cc(NCC(C)(C)CNc2ccc(S(N)(=O)=O)cc2)nc(N)n1 [Example 164, 4-[[3-[[2-amino-6-(3-chloro-2-methyl-phenyl)pyrimidin-4-yl]amino]-2,2-dimethyl-propyl]amino]benzenesulfonamide] |
| < 200 nM | < 500 nM | Cc1nc2ccc(NCC(C)(C)CNc3cc(-c4cccc(Cl)c4C)nc(N)n3)cc2s1 [Example 165, 6-(3-chloro-2-methyl-phenyl)-N4-[2,2-dimethyl-3-[(2-methyl-1,3-benzothiazol-6-yl)amino]propyl]pyrimidine-2,4-diamine] |
| < 200 nM | < 500 nM | Cc1c(Cl)cccc1-c1cc(NCCNc2cccc(S(=O)(=O)C(C)C)c2)nc(N)n1 [Example 166, 6-(3-Chloro-2-methyl-phenyl)-N4-[2-(3-isopropylsulfonylanilino)ethyl]pyrimidine-2,4-diamine] |
| < 200 nM | < 500 nM | Cc1c(Cl)cccc1-c1cc(NCCCNc2ccc(C(N)=O)cn2)nc(N)n1 [Example 167, 6-[3-[[2-amino-6-(3-chloro-2-methyl-phenyl)pyrimidin-4-yl]amino]propylamino]pyridine-3-carboxamide] |
| < 200 nM | < 500 nM | Cc1c(Cl)cccc1-c1cc(NCCCNc2nccc(C(N)=O)n2)nc(N)n1 [Example 168, 2-[3-[[2-amino-6-(3-chloro-2-methyl-phenyl)pyrimidin-4-yl]amino]propylamino]pyrimidine-4-carboxamide] |

| IC50 [1] | IC50 [2] | SMILES |
| --- | --- | --- |
| < 200 nM | < 500 nM | Cc1c(Cl)cccc1-c1cc(NCCc2ccc(S(=O)(=O)C(C)C)cc2)nc(N)n1 [Example 169, 6-(3-chloro-2-methyl-phenyl)-N4-[2-(4-isopropylsulfonylphenyl)ethyl]pyrimidine-2,4-diamine] |
| < 200 nM | < 500 nM | Cc1c(Cl)cccc1-c1cc(NCCc2cccc(S(=O)(=O)C(C)C)c2)nc(N)n1 [Example 170] |
| < 200 nM | < 500 nM | Cc1c(Cl)cccc1-c1cc(NCCc2ccc(C(N)=O)c(F)c2)nc(N)n1 [Example 171, 4-[2-[[2-amino-6-(3-chloro-2-methyl-phenyl)pyrimidin-4-yl]amino]ethyl]-2-fluoro-benzamide] |
| < 200 nM | < 500 nM | Cc1c(Cl)cccc1-c1cc(NCCc2ccc(S(C)(=O)=O)c(F)c2)nc(N)n1 [Example 172, 6-(3-chloro-2-methyl-phenyl)-N4-[2-(3-fluoro-4-methylsulfonyl-phenyl)ethyl]pyrimidine-2,4-diamine] |
| < 200 nM | < 500 nM | Cc1c(Cl)cccc1-c1cc(NCCc2ccc(O)c(C(N)=O)c2)nc(N)n1 [Example 173, 5-[2-[[2-amino-6-(3-chloro-2-methyl-phenyl)pyrimidin-4-yl]amino]ethyl]-2-hydroxy-benzamide] |
| < 200 nM | < 500 nM | Cc1c(Cl)cccc1-c1cc(NCCSc2nccc(C(N)=O)n2)nc(N)n1 [Example 174, 2-[2-[[2-amino-6-(3-chloro-2-methyl-phenyl)pyrimidin-4-yl]amino]ethylsulfanyl]pyrimidine-4-carboxamide] |
| < 200 nM | < 500 nM | Cc1c(Cl)cccc1-c1cc(NCCSCc2ccc(S(C)(=O)=O)cc2)nc(N)n1 [Example 176, 6-(3-chloro-2-methyl-phenyl)-N4-[2-[(4-methylsulfonylphenyl)methylsulfanyl]ethyl]pyrimidine-2,4-diamine] |
| < 200 nM | < 500 nM | Cc1c(Cl)cccc1-c1cc(NCCc2ccc(C(=O)OC(C)C)cc2)nc(N)n1 [Example 178, Isopropyl 4-[2-[[2-amino-6-(3-chloro-2-methyl-phenyl)pyrimidin-4-yl]amino]ethyl]benzoate] |
| < 200 nM | < 500 nM | Cc1c(Cl)cccc1-c1cc(NCCSc2ccc(S(N)(=O)=O)cn2)nc(N)n1 [Example 180, 6-[2-[[2-amino-6-(3-chloro-2-methyl-phenyl)pyrimidin-4-yl]amino]ethylsulfanyl]pyridine-3-sulfonamide] |
| < 200 nM | < 500 nM | COC(=O)c1ccc(CSCCNc2cc(-c3cccc(Cl)c3C)nc(N)n2)cc1 [Example 181, methyl 4-[2-[[2-amino-6-(3-chloro-2-methyl-phenyl)pyrimidin-4-yl]amino]ethylsulfanylmethyl]benzoate] |
| < 200 nM | < 500 nM | COC(=O)c1ccc(CCNc2cc(-c3cccc(Cl)c3C)nc(N)n2)cc1 [Example 182, methyl 4-[2-[[2-amino-6-(3-chloro-2-methyl-phenyl)pyrimidin-4-yl]amino]ethyl]benzoate] |
| < 200 nM | < 500 nM | CCOC(=O)c1ccc(CCNc2cc(-c3cccc(Cl)c3C)nc(N)n2)cc1 [Example 183, ethyl 4-[2-[[2-amino-6-(3-chloro-2-methyl-phenyl)pyrimidin-4-yl]amino]ethyl]benzoate] |
| < 200 nM | < 500 nM | CCCOC(=O)c1ccc(CCNc2cc(-c3cccc(Cl)c3C)nc(N)n2)cc1 [Example 184, propyl 4-[2-[[2-amino-6-(3-chloro-2-methyl-phenyl)pyrimidin-4-yl]amino]ethyl]benzoate] |
| < 200 nM | < 500 nM | Cc1c(Cl)cccc1-c1cc(NCCc2ccc(C(=O)OCCO)cc2)nc(N)n1 [Example 185, 2-hydroxyethyl 4-[2-[[2-amino-6-(3-chloro-2-methyl-phenyl)pyrimidin-4-yl]amino]ethyl]benzoate] |
| < 200 nM | < 500 nM | Cc1c(Cl)cccc1-c1cc(NCCc2ccc(C(=O)OCCS(C)(=O)=O)cc2)nc(N)n1 [Example 186, 2-methylsulfonylethyl 4-[2-[[2-amino-6-(3-chloro-2-methyl-phenyl)pyrimidin-4-yl]amino]ethyl]benzoate] |
| < 200 nM | < 500 nM | Cc1c(Cl)cccc1-c1cc(NCCc2ccc(C(=O)OCC(O)CO)cc2)nc(N)n1 (stereo not drawn) [Example 187, 2,3-dihydroxypropyl 4-[2-[[2-amino-6-(3-chloro-2-methyl-phenyl)pyrimidin-4-yl]amino]ethyl]benzoate] |
